In patent publication US20150038435A1, “N-TERMINALLY MODIFIED OLIGOPEPTIDES AND USES THEREOF” (Novo Nordisk A/S, priority 2012, published 2015):
Starred links: 1 amine or outer side, 2 acyl side, 3 side chain; linkers in the order of their positions; H or OH if unused. Non-standard residues stand in square brackets, D forms with d. Residues, ends and D or L forms follow the SMILES beside them. *: point of attachment. γGlu = O=C(O)[C@H](CCC(=O)[*:2])N[*:1]; Palmitoyl = CCCCCCCCCCCCCCCC(=O)*; Myristoyl = CCCCCCCCCCCCCC(=O)*; Lauroyl = CCCCCCCCCCCC(=O)*

B1: Soya bean trypsin inhibitor: soya bean trypsin inhibitor (Kunitz type, SBTI), protease inhibitor described in the public domain (protein, UniProt P01070 25-205, looked up)
Trypsin inhibitor A: DFVLDNEGNPLENGGTYYILSDITAFGGIRAAPTGNERCPLTVVQSRNELDKGIGTIISSPYRIRFIAEGHPLSLKFDSFAVIMLCVGIPTEWSVVEDLPEGPAVKIGENKDAMDGWFRLERVSDDEFNNYKLVFCPQQAEDDKCGDIGISIDHDDGTRRLVVSKNKPLVVQFQKLDKESL

Key:
Chymotrypsin = test: Inhibition of enzymatic degradation of a model GLP-1 (FRET substrate) by chymotrypsin; assay type: biochemical; conditions: for EC50: read-out: EC50 Chymotrypsin (0.001 mg/ml), 0.001 mg/ml chymotrypsin, 37° C., ± standard error if at least 3 measurements
Method in brief: (§1)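 MCA/DNP-labelled model GLP-1 FRET substrate (10 μl of 100 μM stock) in Dulbecco's PBS at 37° C with varying acylated peptide; fluorescence (ex 320/em 405 nm) read every minute for ≥30 min. Initial slopes from linear regression, duplicates averaged; EC50 by sigmoidal logistic fit of slope vs concentration.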

Trypsin = test: Inhibition of enzymatic degradation of a model GLP-1 (FRET substrate) by trypsin; assay type: biochemical; conditions: for EC50: read-out: EC50 Trypsin (0.001 mg/ml), 0.001 mg/ml trypsin, 37° C.
Method in brief: as §1

[1] = Hydrophobicity: retention time during reverse phase HPLC; assay type: physicochemical; conditions: Acquity CSH C18; pH 7.2 buffer/CH3CN gradient; 40° C.
Text: The retention time (RT) during reverse phase HPLC was taken as a measure of hydrophobicity of an N-terminally modified peptide or oligopeptide of the invention, where the connection is: The longer the RT, the more hydrophobic N-terminally modified peptide or oligopeptide. The following running conditions were applied during HPLC analysis:
Buffer B: 70% (v/v) aq. CH3CN

[2] = Stability of N-terminally acylated peptides or oligopeptides in GI juice; assay type: in vitro ADME; conditions: GI juice (jejunum extract); degradation of the compound itself in jejunum extract from rat; read-out: t 1/2 in rat GI juice
Method: (§2) 96 well plates were coated by incubating with 0.4% Bovine serum albumin (BSA) solution for minimum of 60 min. To each well, 210 μl of buffer (Hank's balanced salt solution-4-(2-hydroxyethyl)-1-piperazineethanesulfonic acid (HBSS-HEPES) buffer) with 0.005% Tween 20 and 0.001% BSA, pH 6.5 precipitated with 3 vol. cold 96% ethanol (EtOH) w. 1% TFA), 30 μl of a substrate (100 μM insulin analogue or GLP-1 analogue in buffer) and 30 μl of N-terminally acylated peptide or oligopeptide of the invention (10 mM) were added. The plates were pre-incubated (before adding GI juice) for 60 min at 37° C. After addition of 30 μl of GI juice (10-times diluted in buffer), the plates were incubated for 60 min/37° C. on shaker. Samples (40 μl) were taken at 0, 5, 10, 20, 30 and 60 min, stopped with 3 vol. cold 96% EtOH w. 1% TFA and spun down in plates (4500 rpm for 10 min). Samples were diluted 5 times with the buffer prior to LC-MS analysis. Standard samples (0.1, 0.5, 1.0, 5.0, 10.0 μM) were prepared and treated as the samples. Standard curve was analysed both at the beginning and the end of the sequence. Two replicates of each tested conditions were included. Ion suppression was assessed by analyzing a standard at 1 μM and at 10 μM with 1 mM inhibitor present. Intact insulin or GLP-1 analoues were determined at each sample. The results were plotted against the incubation time. Half-lives of the insulin or GLP-1 analogues were determined by nonlinear regression of the results using, for example Graph Pad Prism. The half-lives were expressed relative to the half-live of the insulin or GLP-1 analogue without inhibitor present by dividing the half-lives obtained in the presence of inhibitor with those obtained in the absence of inhibitors. GI juice was prepared from male Sprague Dawley rats (200-250 g) by excising approximately 20 cm piece of mid jejunum and rinsing the inside with 2.5 ml 0.9% sodium chloride solution. The sodium chloride solution was collected in a centrifuge tube, pooled from all rats (20) and centrifuged at 4500 rpm./10 min/4° C. The supernatant was aliquoted in tubes and stored at −80° C.
Degradation of the N-terminally fatty acid modified peptide or oligopeptide of the invention themselves in jejunum extract from rat (GI juice) and determination of half-lives, was measured as described above (example 200).

GI juice = test: Inhibition of GI juice degradation of insulin analogue and GLP-1 analogue; assay type: biochemical; conditions: rat GI juice
Method: as §2, with “To each well, 210 μl of buffer (Hank's balanced salt solution-4-(2-hydroxyethyl)-1-piperazineethanesulfonic acid (HBSS-HEPES) buffer) with 0.005% Tween 20 and 0.001% BSA, pH 6.5 precipitated with 3 vol. cold 96% ethanol (EtOH) w.” left out, “Samples (40 μl) were taken at 0, 5, 10, 20, 30 and 60 min, stopped with 3 vol. cold 96% EtOH w.” left out, “Half-lives of the insulin or GLP-1 analogues were determined by nonlinear regression of the results using, for example Graph Pad Prism.” left out
A14E, B25H, B29K(N(eps)Octadecanedioyl-γGlu-OEG-OEG), desB30 human insulin and N-epsilon26-[2-(2-{2-[2-(2-{2-[(S)-4-Carboxy-4-(17-carboxyheptadecanoylamino)-butyrylamino]ethoxy}ethoxy)acetylamino]ethoxy}ethoxy)acetyl][Aib8,Arg34]GLP-1-(7-37) were used as standards in this assay.
For experiments repeated more than two times, standard deviation is given

[3] = compound 0.1 mM, buffer containing 8% DMSO

Row | Molecule | EC50 (Chymotrypsin) [µM] | EC50 (Trypsin) [µM] | RT (retention time during reverse phase HPLC as a measure of hydrophobicity) [1] [min] | half-life [2] [min] | Slope of the initial increase in fluorescence obtained during incubation with 0.001 mg/ml Chymotrypsin (Chymotrypsin; [3]) | Slope of the initial increase in fluorescence obtained during incubation with 0.001 mg/ml Trypsin (Trypsin; [3]) | other results
1 | CCCCCCCCCCCCCC(=O)N[C@@H](CCC(=O)N[C@@H](C)C(=O)N1CCC[C@H]1C(=O)N[C@@H](Cc1ccccc1)C(=O)O)C(=O)O [Example 23, N-tetradecanoyl-γGlu-Ala-Pro-Phe-OH] ({Myristoyl-γGlu}-Ala-Pro-Phe-OH) | 144 | 44 | 5.29 | 4.4 | – | – | –
2 | CCCCCCCCCCCCCC(=O)N[C@@H](Cc1c[nH]cn1)C(=O)N[C@@H](C)C(=O)N[C@@H](CCCNC(=N)N)C(=O)N1CCC[C@H]1C(=O)N[C@@H](Cc1ccccc1)C(=O)O [Example 178, N-tetradecanoyl-His-Ala-Arg-Pro-Phe-OH] (Myristoyl-HARPF-OH) | 32 | 102 | – | 4.5 | – | – | –
3 | CCCCCCCCCCCCCC(=O)N[C@H](C)C(=O)N[C@H](C)C(=O)N1CCC[C@@H]1C(=O)N[C@H](Cc1ccccc1)C(=O)O [Example 2, N-tetradecanoyl-DAla-DAla-DPro-DPhe-OH] (Myristoyl-[dA][dA][dP][dF]-OH) | 85 | 112 | 9.74 | 610 | – | – | Slope of the initial increase in fluorescence obtained during incubation with 0.001 mg/ml Chymotrypsin (Chymotrypsin; compound 1 mM): 0.05; Slope of the initial increase in fluorescence obtained during incubation with 0.001 mg/ml Trypsin (Trypsin; compound 1 mM): 0.15
4 | CCCCCCCCCCCCCC(=O)N[C@@H](CCC(=O)O)C(=O)N[C@@H](C)C(=O)N[C@@H](C)C(=O)N1CCC[C@H]1C(=O)N[C@@H](Cc1ccccc1)C(=O)O [Example 13, N-tetradecanoyl-Glu-Ala-Ala-Pro-Phe-OH] (Myristoyl-EAAPF-OH) | – | – | 5.19 | – | – | – | Slope of the initial increase in fluorescence obtained during incubation with 0.001 mg/ml Chymotrypsin (Chymotrypsin; compound 1 mM): 0.00; Slope of the initial increase in fluorescence obtained during incubation with 0.001 mg/ml Trypsin (Trypsin; compound 1 mM): 0.12; Half Life fold increase (over solution w/o N-terminally acylated (oligo)peptide) (GI juice; compound 1 mM): 3.4; Half Life of insulin analogue (GI juice; compound 1 mM, 37° C.): 7.2 min
5 | CCCCCCCCCCCCCCCC(=O)N[C@@H](CCC(=O)N[C@@H](C)C(=O)N[C@@H](C)C(=O)N1CCC[C@H]1C(=O)N[C@@H](Cc1ccccc1)C(=O)O)C(=O)O [Example 135, N-hexadecanoyl-γGlu-Ala-Ala-Pro-Phe-OH] ({Palmitoyl-γGlu}-AAPF-OH) | 45 | 40 | 7.5 | – | – | – | Half Life fold increase (over solution w/o N-terminally acylated (oligo)peptide) (GI juice; compound 1 mM): 3.8; Half Life of GLP-1 analogue (GI juice; compound 1 mM, 37° C.): 0.9 min; Half Life of insulin analogue (GI juice; compound 1 mM, 37° C.): 9.2 min
6 | CCCCCCCCCCCCCC(=O)N[C@@H](CCC(=O)N[C@H](C)C(=O)N1CCC[C@@H]1C(=O)N[C@H](Cc1ccccc1)C(=O)O)C(=O)O [Example 148, N-tetradecanoyl-γGlu-DAla-DPro-DPhe-OH] ({Myristoyl-γGlu}-[dA]-[dP]-[dF]-OH) | 322 | – | – | > 1000 | – | – | –
7 | N-dodecanoyl-His-Ala-Ala-Pro-Tyr-OH [Example 38] | – | – | 4.94 | – | 0.02 | 1.66 | –
8 | N-dodecanoyl-Ala-Ser-Pro-Tyr-OH (Lauroyl-ASPY-OH; SMILES CCCCCCCCCCCC(=O)N[C@@H](C)C(=O)N[C@@H](CO)C(=O)N1CCC[C@H]1C(=O)N[C@@H](Cc1ccc(O)cc1)C(=O)O) [Example 86] | – | – | 5.64 | – | 0.33 | 1.89 | –
9 | N-dodecanoyl-Ala-Ala-Ala-Tyr-OH (Lauroyl-AAAY-OH; SMILES CCCCCCCCCCCC(=O)N[C@@H](C)C(=O)N[C@@H](C)C(=O)N[C@@H](C)C(=O)N[C@@H](Cc1ccc(O)cc1)C(=O)O) [Example 57] | – | – | 5.73 | – | 1.65 | 1.59 | –
10 | N-dodecanoyl-Ala-Glu-Pro-Tyr-OH (Lauroyl-AEPY-OH; SMILES CCCCCCCCCCCC(=O)N[C@@H](C)C(=O)N[C@@H](CCC(=O)O)C(=O)N1CCC[C@H]1C(=O)N[C@@H](Cc1ccc(O)cc1)C(=O)O) [Example 77] | – | – | 4.17 | – | 1.56 | 1.55 | –
11 | N-dodecanoyl-Ala-Ala-Asn-Tyr-OH (Lauroyl-AANY-OH; SMILES CCCCCCCCCCCC(=O)N[C@@H](C)C(=O)N[C@@H](C)C(=O)N[C@@H](CC(N)=O)C(=O)N[C@@H](Cc1ccc(O)cc1)C(=O)O) [Example 59] | – | – | 7.88 | – | 1.79 | 1.72 | –
12 | B1 | – | – | – | – | – | – | Half Life of insulin analogue (GI juice; inhibitor 0.1%, ± standard deviation): 505.3 ± 309.2 min
